The conditions of series [1]: cited from earlier work.
Series [2] concerns phosphodiesterase I from snake venom (Crotalus atrox), PDE type IV [포스포디에스테라제 I은 뱀독 (Crotalus atrox) 유래 PDE 타입 IV]. As to the kind of experiment: Phosphodiesterase inhibition ([3H] cAMP SPA). The series is classed as biochemical.
In series [3] the test system is bovine endothelial cells (CPAE) [소내피세포(CPAE)]. The series is classed as cell-based. Conditions: 24 h.
Series [4] relates to bovine vascular endothelial cells (CPAE cell line) [소혈관 내피세포(CPAE cell line)]. As to the kind of experiment: NO production in CPAE endothelial cells (total nitrate/nitrite, Nims method). The series is classed as cell-based.
Series [5] has as its system phosphodiesterase (PDE) [포스포디에스터라제]. In words: PDE inhibition in combination with existing PDE inhibitors. The series is classed as biochemical. Conditions: existing PDE inhibitor combined with DX fraction (20, 10, 4 μg); in words.

The values below come from patent publication KR20070037041A, “누에 수번데기로부터 아데노신 유도체 화합물을 정제하는방법 및 아데노신 유도체 화합물을 포함하는 발기부전치료용 조성물” (대한민국(관리부서:농촌진흥청장), priority 2005, dated 2007).

Consider `CCCOc1ccccc1-c1nc2nn[nH]c2c(=O)[nH]1` [자프리나스트(zaprinast)], for which the erection induction entry in series [1] (compared with Viagra, Trigo-Rocha 1993, Taher 1994) was “비아그라보다 다소 낮은 정도로 발기를 유도”. As for “5-{6-(디메틸아미노)-9H-푸린-9-일}-테트라히드로-4'-푸란-3'-올-5'-o-테트라파이로(tetrafyro)-2H-피란-3'',4'',5''-트리올 [RPC-IV]”, in series [2] (0, 2, 10, 20 μg, in words), the phosphodiesterase inhibition result is “용량의존적 저해”. Further, the 50% inhibitory concentration (IC50) in series [2] (PDE [3H] cAMP SPA) amounted to 0.88 µg/mL. In addition, the cell viability in series [3] came out at 86.9%. Moreover, the “NO production (540 nm)” value in series [4] (RP-HPLC fractions, absorbance at 540 nm) stood at 1.426. Besides, the NO activity result in series [4] (chromatographic fractions, in words) is “최대로 방출”. For `COc1cc2c(cc1OC)-c1c/c(=N\c3c(C)cc(C)cc3C)n(C)c(=O)n1CC2` [Trequinsin, 하이드로클로라이드], the “PDE inhibition on combined administration” value in series [5] is reported as “상승작용”. `CN1CC(=O)N2[C@H](c3ccc4c(c3)OCO4)c3[nH]c4ccccc4c3C[C@@H]2C1=O` [시알리스]: in series [1] (background), the “duration of drug effect” value was at most 36 h.

Turning to `CCCc1nc(C)c2c(=O)[nH]c(-c3cc(S(=O)(=O)N4CCN(CC)CC4)ccc3OCC)nn12` [레비트라], the duration of erection in series [1] (background) is recorded as at most 36 h.

The term IC50 denotes the concentration that gives 50% inhibition. Higher therefore signals lower potency. A word on the cell viability: it is the share of living cells, or the viability signal relative to a control. Higher therefore signals better survival.
